According to patent publication US20240041042A1, “1-(PYRIDYL)-5-AZINYLPYRAZOLE DERIVATIVES, AND THEIR USE FOR CONTROL OF UNDESIRED PLANT GROWTH” (Bayer Aktiengesellschaft, priority 2020, published 2024):
Where two headings read alike, the source gives them in different places.

What was measured:
Type in all cases: in vivo
[1] = system: Pharbitis purpurea (PHBPU); experiment: Post-emergence herbicidal action against PHBPU; conditions: dosage 320 g/ha
In short: (§1)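 Post-emergence greenhouse spray, one-leaf stage, 600 l/ha water plus 0.5% additive; WP or EC formulations; application rates 320 g/ha or lower. Visual % damage vs untreated controls at ~3 weeks.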

Glycine max (GLXMA) = conditions: pre-emergence, 80 g/ha, crop plant compatibility, in comparison to untreated controls
In short: (§2)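 Scoring: visual, % of untreated control, about 3 weeks after a pre-emergence application to the soil surface. Application used WP or EC formulations diluted in water with 0.5% additive at 600 l/ha; dosage levels are marked by suffixes a, b and c.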

[2] = system: Polygonum convolvulus (POLCO); experiment: Pre-emergence herbicidal action against POLCO
In short: (§3)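 Read-out is visual percent damage relative to untreated pots, with 100% meaning dead plants and 0% meaning no difference, assessed roughly three weeks after treatment. Compounds were applied pre-emergence to the covering soil at up to 320 g/ha.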

Setaria viridis (SETVI) [3] = experiment: Pre-emergence herbicidal action against SETVI
In short: as §3

Viola tricolor (VIOTR) [4] = experiment: Pre-emergence herbicidal action against VIOTR
In short: as §3

Setaria viridis (SETVI) [5] = experiment: Post-emergence herbicidal action against SETVI
In short: as §1

[6] = system: Echinochloa crus-galli (ECHCG); experiment: Post-emergence herbicidal action against ECHCG; conditions: dosage 320 g/ha
In short: as §1

[7] = system: Polygonum convolvulus (POLCO); experiment: Post-emergence herbicidal action against POLCO; conditions: dosage 320 g/ha
In short: as §1

[8] = system: Pharbitis purpurea (PHBPU); experiment: Pre-emergence herbicidal action against PHBPU; conditions: dosage 320 g/ha
In short: as §3

Oryza sativa (ORYSA) [9] = conditions: crop plant compatibility
In short: (§4)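 Foliar application at the one-leaf stage: WP/EC formulation, 0.5% additive, 600 l/ha water. Greenhouse-grown in sandy loam. Endpoint is visual % injury relative to untreated controls at about 3 weeks.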

[10] = system: Triticum aestivum (TRZAS); conditions: crop plant compatibility, effect vs untreated controls
In short: as §4

Zea mays (ZEAMX) [11] = conditions: crop plant compatibility, effect vs untreated controls
In short: as §4

[12] = system: Verconica persica (VERPE); experiment: Post-emergence herbicidal action against VERPE
In short: as §1

[13] = system: Amaranthus retroflexus (AMARE); experiment: Pre-emergence herbicidal action against AMARE; conditions: visual scoring after about 3 weeks vs untreated controls
In short: as §3

[14] = system: Echinochloa crus-galli (ECHCG); experiment: Pre-emergence herbicidal action against ECHCG; conditions: dosage 320 g/ha
In short: as §3

Viola tricolor (VIOTR) [15] = experiment: Post-emergence herbicidal action against VIOTR; conditions: 320 g/ha
In short: as §1

[16] = system: Amaranthus retroflexus (AMARE); experiment: Post-emergence herbicidal action against AMARE; conditions: 320 g/ha, visual rating about 3 weeks after treatment
In short: as §1

Lolium rigidum (LOLRI) [17] = experiment: Post-emergence herbicidal action against LOLRI; conditions: dosage 320 g/ha
In short: as §1

[18] = system: Matricaria inodora (MATIN); experiment: Post-emergence herbicidal action against MATIN
In short: as §1

[19] = system: Verconica persica (VERPE); experiment: Pre-emergence herbicidal action against VERPE; conditions: dosage 320 g/ha
In short: as §3

Lolium rigidum (LOLRI) [20] = experiment: Pre-emergence herbicidal action against LOLRI
In short: as §3

[21] = system: Alopecurus myosuroides (ALOMY); experiment: Pre-emergence herbicidal action against ALOMY; conditions: scored visually after about 3 weeks, 100% = plants have died
In short: as §3

Brassica napus (BRSNW) = conditions: crop plant compatibility, in comparison to untreated controls
In short: as §2

[22] = system: Triticum aestivum (TRZAS); conditions: crop plant compatibility; for Pre-emergence action against TRZAS in %: in comparison to untreated controls
In short: as §2

Avena fatua (AVEFA) = experiment: Pre-emergence herbicidal action against AVEFA; conditions: visual scoring after about 3 weeks vs untreated controls
In short: as §3

[23] = system: Digitaria sanguinalis (DIGSA); experiment: Pre-emergence herbicidal action against DIGSA
In short: as §3

[24] = system: Matricaria inodora (MATIN); experiment: Pre-emergence herbicidal action against MATIN
In short: as §3

[25] = system: Digitaria sanguinalis (DIGSA); experiment: Post-emergence herbicidal action against DIGSA; conditions: visual rating about 3 weeks after treatment
In short: as §1

[26] = system: Abutilon theophrasti (ABUTH); experiment: Pre-emergence herbicidal action against ABUTH; conditions: Dosage column 320 g/ha (title prints 3200 g/ha); scored visually after about 3 weeks; 100% = plants have died
In short: as §3

[27] = system: Alopecurus myosuroides (ALOMY); experiment: Post-emergence herbicidal action against ALOMY; conditions: visual rating about 3 weeks after treatment vs untreated controls (100% = plants have died, 0% = like control plants)
In short: as §1

Oryza sativa (ORYSA) [28] = conditions: pre-emergence, crop plant compatibility, in comparison to untreated controls
In short: as §2

Zea mays (ZEAMX) [29] = conditions: pre-emergence, crop plant compatibility, in comparison to untreated controls
In short: as §2

[30] = system: Abutilon theophrasti (ABUTH); experiment: Post-emergence herbicidal action against ABUTH; conditions: 320 g/ha, visual rating about 3 weeks after treatment vs untreated controls (100% = plants have died, 0% = like control plants)
In short: as §1

[31] = 80 g/ha, effect in comparison to untreated controls
[32] = 20 g/ha, effect vs untreated controls
[33] = 320 g/ha, effect in comparison to untreated controls

## O=C(O)COc1nn(-c2ncccc2C(F)(F)F)c(-c2cncc(F)c2)c1Br [Example I-230]
[1]
  Post-emergence action against PHBPU in %: 90%
Glycine max (GLXMA)
  Pre-emergence action against GLXMA in %: 20%
[2]; dosage 80 g/ha
  Pre-emergence action against POLCO in %: 80%
[2]; dosage 320 g/ha
  Pre-emergence action against POLCO in %: 90%
Setaria viridis (SETVI) [3]; dosage 320 g/ha
  Pre-emergence action against SETVI in %: 100%
Viola tricolor (VIOTR) [4]; 320 g/ha, Viola tricolor
  Pre-emergence action against VIOTR in %: 90%
Viola tricolor (VIOTR) [4]; dosage 80 g/ha
  Pre-emergence action against VIOTR in %: 80%
Setaria viridis (SETVI) [5]; dosage 320 g/ha
  Post-emergence action against SETVI in %: 80%
[6]
  Post-emergence action against ECHCG in %: 80%
[7]
  Post-emergence action against POLCO in %: 80%
[8]
  Pre-emergence action against PHBPU in %: 90%
Oryza sativa (ORYSA) [9]; [31]
  Post-emergence action against ORYSA in %: 0%
[10]; 80 g/ha
  Post-emergence action against TRZAS in %: 10%
Zea mays (ZEAMX) [11]; 80 g/ha
  Post-emergence action against ZEAMX in %: 0%
[12]; 320 g/ha, VERPE
  Post-emergence action against VERPE in %: 80%
[12]; dosage 80 g/ha
  Post-emergence action against VERPE in %: 80%
[13]; 320 g/ha
  Pre-emergence action against AMARE in %: 80%
[14]
  Pre-emergence action against ECHCG in %: 90%
Viola tricolor (VIOTR) [15]
  Post-emergence action against VIOTR in %: 80%
[16]
  Post-emergence action against AMARE in %: 90%

## COC(=O)[C@@H](C)Oc1nn(-c2ncccc2F)c(-c2cncc(F)c2)c1Br [Example I-15]
Lolium rigidum (LOLRI) [17]
  Post-emergence action against LOLRI in %: 80%
[18]; dosage 80 g/ha
  Post-emergence action against MATIN in %: 80%
[18]; dosage 320 g/ha
  Post-emergence action against MATIN in %: 90%
[1]
  Post-emergence action against PHBPU in %: 90%
[19]
  Pre-emergence action against VERPE in %: 100%
Lolium rigidum (LOLRI) [20]; dosage 80 g/ha
  Pre-emergence action against LOLRI in %: 90%
Lolium rigidum (LOLRI) [20]; dosage 320 g/ha
  Pre-emergence action against LOLRI in %: 100%
[21]; 80 g/ha
  Pre-emergence action against ALOMY: 100%
[21]; 320 g/ha
  Pre-emergence action against ALOMY: 100%
Brassica napus (BRSNW); 20 g/ha
  Pre-emergence action against BRSNW in %: 10%
[22]; [32]
  Pre-emergence action against TRZAS: 10%
Avena fatua (AVEFA); 80 g/ha
  Pre-emergence action against AVEFA in %: 80%
Avena fatua (AVEFA); 320 g/ha
  Pre-emergence action against AVEFA in %: 100%
[2]; dosage 80 g/ha
  Pre-emergence action against POLCO in %: 90%
[2]; dosage 320 g/ha
  Pre-emergence action against POLCO in %: 100%
Setaria viridis (SETVI) [3]; dosage 80 g/ha
  Pre-emergence action against SETVI in %: 100%
Setaria viridis (SETVI) [3]; dosage 320 g/ha
  Pre-emergence action against SETVI in %: 100%
Viola tricolor (VIOTR) [4]; 320 g/ha, Viola tricolor
  Pre-emergence action against VIOTR in %: 100%
Viola tricolor (VIOTR) [4]; dosage 80 g/ha
  Pre-emergence action against VIOTR in %: 100%
Setaria viridis (SETVI) [5]; dosage 80 g/ha
  Post-emergence action against SETVI in %: 80%
Setaria viridis (SETVI) [5]; dosage 320 g/ha
  Post-emergence action against SETVI in %: 90%
[23]; 80 g/ha, visual scoring after about 3 weeks vs untreated controls
  Pre-emergence action against DIGSA in %: 100%
[23]; dosage 320 g/ha
  Pre-emergence action against DIGSA in %: 100%
[8]
  Pre-emergence action against PHBPU in %: 80%
[24]; dosage 80 g/ha
  Pre-emergence action against MATIN in %: 100%
[24]; dosage 320 g/ha
  Pre-emergence action against MATIN in %: 100%
Oryza sativa (ORYSA) [9]; [32]
  Post-emergence action against ORYSA in %: 0%
Oryza sativa (ORYSA) [9]; [31]
  Post-emergence action against ORYSA in %: 10%
[25]; 80 g/ha
  Post-emergence action against DIGSA in %: 90%
[25]; 320 g/ha
  Post-emergence action against DIGSA in %: 90%
[12]; 320 g/ha, VERPE
  Post-emergence action against VERPE in %: 80%
[12]; dosage 80 g/ha
  Post-emergence action against VERPE in %: 80%
[13]; 80 g/ha
  Pre-emergence action against AMARE in %: 100%
[13]; 320 g/ha
  Pre-emergence action against AMARE in %: 100%
[26]
  Pre-emergence action against ABUTH: 90%
[27]; 80 g/ha
  Post-emergence action against ALOMY in %: 90%
[27]; 320 g/ha
  Post-emergence action against ALOMY in %: 90%
[14]
  Pre-emergence action against ECHCG in %: 90%
Viola tricolor (VIOTR) [15]
  Post-emergence action against VIOTR in %: 80%

## CC(=O)CNC(=O)COc1nn(-c2ccnc(F)c2)c(-c2ccc(F)nc2)c1Br [III-07]
[21]; 320 g/ha
  Pre-emergence action against ALOMY: 80%
Brassica napus (BRSNW); 80 g/ha
  Pre-emergence action against BRSNW in %: 0%
Oryza sativa (ORYSA) [28]; 80 g/ha
  Pre-emergence action against ORYSA in %: 0%
Oryza sativa (ORYSA) [28]; 320 g/ha
  Pre-emergence action against ORYSA in %: 20%
[22]; 80 g/ha
  Pre-emergence action against TRZAS in %: 0%
[22]; 320 g/ha
  Pre-emergence action against TRZAS in %: 0%
Zea mays (ZEAMX) [29]; 80 g/ha
  Pre-emergence action against ZEAMX in %: 0%
Zea mays (ZEAMX) [29]; 320 g/ha
  Pre-emergence action against ZEAMX in %: 10%
Oryza sativa (ORYSA) [9]; [31]
  Post-emergence action against ORYSA in %: 0%
Oryza sativa (ORYSA) [9]; [33]
  Post-emergence action against ORYSA in %: 0%
[10]; 80 g/ha
  Post-emergence action against TRZAS in %: 0%
Zea mays (ZEAMX) [11]; 80 g/ha
  Post-emergence action against ZEAMX in %: 0%
Zea mays (ZEAMX) [11]; 320 g/ha
  Post-emergence action against ZEAMX in %: 0%
[30]
  Post-emergence action against ABUTH in %: 80%

## O=C(O)C1CCN(C(=O)COc2nn(-c3ccccn3)c(-c3cncc(F)c3)c2Br)C1 (racemic) [Example I-63]
Brassica napus (BRSNW); 80 g/ha
  Pre-emergence action against BRSNW in %: 0%
Brassica napus (BRSNW); 320 g/ha
  Pre-emergence action against BRSNW in %: 20%
Oryza sativa (ORYSA) [28]; 80 g/ha
  Pre-emergence action against ORYSA in %: 0%
Oryza sativa (ORYSA) [28]; 320 g/ha
  Pre-emergence action against ORYSA in %: 0%
[22]; 80 g/ha
  Pre-emergence action against TRZAS in %: 0%
[22]; 320 g/ha
  Pre-emergence action against TRZAS in %: 0%
Zea mays (ZEAMX) [29]; 80 g/ha
  Pre-emergence action against ZEAMX in %: 10%
Zea mays (ZEAMX) [29]; 320 g/ha
  Pre-emergence action against ZEAMX in %: 10%
Oryza sativa (ORYSA) [9]; [31]
  Post-emergence action against ORYSA in %: 0%
Oryza sativa (ORYSA) [9]; [33]
  Post-emergence action against ORYSA in %: 10%
[10]; 80 g/ha
  Post-emergence action against TRZAS in %: 0%
[10]; 320 g/ha
  Post-emergence action against TRZAS in %: 0%
Zea mays (ZEAMX) [11]; 80 g/ha
  Post-emergence action against ZEAMX in %: 0%
Zea mays (ZEAMX) [11]; 320 g/ha
  Post-emergence action against ZEAMX in %: 10%
